From the supplement of paper PMC13380429

Key:
Settings in all cases: 72 h
U2OS [1] = test: drug sensitivity score (DSS) for viability; higher = more toxic; extreme values may be limits of the assay
Vero E6 [2] = test: as above
Caco-2 [3] = test: as above
Calu-3 [4] = test: as above
HepG2 [5] = test: as above
U2OS [6] = test: cell viability relative to DMSO; higher = less toxic
Vero E6 [7] = test: as above
Caco-2 [8] = test: as above
Calu-3 [9] = test: as above
HepG2 [10] = test: as above
U2OS [11] = test: relative viability EC50 (midpoint between 100% and the lowest measured viability); higher = less toxic
Vero E6 [12] = test: as above
Caco-2 [13] = test: as above
Calu-3 [14] = test: as above
HepG2 [15] = test: as above

SMILES	drug sensitivity score (U2OS [1])	drug sensitivity score (Vero E6 [2])	drug sensitivity score (Caco-2 [3])	drug sensitivity score (Calu-3 [4])	drug sensitivity score (HepG2 [5])	cell viability (U2OS [6]; 1 nM)	cell viability (U2OS [6]; 10 nM)	cell viability (U2OS [6]; 100 nM)	cell viability (U2OS [6]; 1000 nM)	cell viability (U2OS [6]; 10000 nM)	cell viability (Vero E6 [7]; 1 nM)	cell viability (Vero E6 [7]; 10 nM)	cell viability (Vero E6 [7]; 100 nM)	cell viability (Vero E6 [7]; 1000 nM)	cell viability (Vero E6 [7]; 10000 nM)	cell viability (Caco-2 [8]; 1 nM)	cell viability (Caco-2 [8]; 10 nM)	cell viability (Caco-2 [8]; 100 nM)	cell viability (Caco-2 [8]; 1000 nM)	cell viability (Caco-2 [8]; 10000 nM)	cell viability (Calu-3 [9]; 1 nM)	cell viability (Calu-3 [9]; 10 nM)	cell viability (Calu-3 [9]; 100 nM)	cell viability (Calu-3 [9]; 1000 nM)	cell viability (Calu-3 [9]; 10000 nM)	cell viability (HepG2 [10]; 1 nM)	cell viability (HepG2 [10]; 10 nM)	cell viability (HepG2 [10]; 100 nM)	cell viability (HepG2 [10]; 1000 nM)	cell viability (HepG2 [10]; 10000 nM)	relative viability EC50 (U2OS [11])	relative viability EC50 (Vero E6 [12])	relative viability EC50 (Caco-2 [13])	relative viability EC50 (Calu-3 [14])	relative viability EC50 (HepG2 [15])
O=c1cc(N2CCOCC2)oc2c(-c3ccccc3)cccc12	0	1.3	0.6	1.1	0.1	97.5%	95%	94.2%	97.8%	92.3%	99.8%	97.4%	96.1%	92.4%	77.1%	109%	94.9%	89%	96.5%	81.9%	98%	93.7%	97.4%	98.2%	76.5%	93.5%	101%	110%	105%	86.1%	> 10 µM	> 10 µM	> 10 µM	> 10 µM	> 10 µM
c1ccc(CCCN2CCN(CCOC(c3ccccc3)c3ccccc3)CC2)cc1	0	0	0.3	0	0.2	101%	97%	100%	98.1%	97.8%	114%	104%	106%	96.5%	95.9%	104%	95%	94.4%	92.9%	85.6%	102%	98.4%	103%	95.9%	99.7%	92.4%	91.6%	99.2%	99.7%	85.1%	> 10 µM	> 10 µM	> 10 µM	> 10 µM	> 10 µM
CC(C)NC[C@@H](O)c1ccc(O)c(O)c1 (racemic) [isoprenaline]	0	0.4	0	0	0	96.8%	98.9%	95.5%	99.7%	103%	101%	97.6%	101%	107%	79.8%	96.5%	90%	89%	92.9%	93.9%	93.6%	104%	94.4%	92.3%	98.2%	109%	98.6%	96.5%	100%	101%	> 10 µM	> 10 µM	> 10 µM	> 10 µM	> 10 µM
BrC1C(Br)C(Br)C(Br)C(Br)C1Br (stereo not given) [1,2,3,4,5,6-hexabromocyclohexane]	0	0	0	0	0	99.1%	96.4%	101%	95.1%	101%	99.7%	107%	101%	105%	93.9%	96.4%	93.6%	97.3%	102%	98.4%	106%	104%	104%	87.3%	105%	95.8%	106%	89.1%	99.8%	90.2%	> 10 µM	> 10 µM	> 10 µM	> 10 µM	> 10 µM
CCN1CCCC1=O [1-ethyl-2-pyrrolidone]	0	0	0	0	0	95.9%	98.4%	104%	95.5%	102%	103%	103%	97%	97.9%	95.3%	93.6%	99.6%	99.4%	88%	95.2%	97.9%	104%	104%	98.6%	104%	99.1%	99.1%	94%	99.9%	97.2%	> 10 µM	> 10 µM	> 10 µM	> 10 µM	> 10 µM
OC[C@H]1O[C@H](O)C[C@@H](O)[C@@H]1O [2-deoxyglucose]	0	0	0	0	0	100%	102%	101%	99.4%	98%	93.4%	102%	90.6%	100%	110%	102%	66.9%	105%	86.9%	101%	108%	98.9%	111%	100%	95.5%	93.2%	96%	97.3%	106%	97.4%	> 10 µM	> 10 µM	> 10 µM	> 10 µM	> 10 µM
O=C1CN=C(c2cccc(Br)c2)c2oc3ccccc3c2N1 [5-BDBD]	0	0	0	0	0	104%	97.5%	95.5%	99.7%	101%	96.7%	92.8%	94.6%	93.5%	95.9%	101%	96.6%	102%	106%	97%	103%	97.2%	112%	96.8%	111%	98.3%	100%	94.4%	96.8%	92.5%	> 10 µM	> 10 µM	> 10 µM	> 10 µM	> 10 µM
